Measured values taken from paper PMC12293736, “Discovery of N-(6-Methoxypyridin-3-yl)quinoline-2-amine Derivatives for Imaging Aggregated α-Synuclein in Parkinson’s Disease with Positron Emission Tomography” (Cells, 2025).
“And” between values parts separate entries of the source, which are not always exact repeats. Equal entries are not always repeated. “Also recorded” adds a separate entry of the source. Where two headings read alike, the source gives them in different places.

What was measured:
[1] = biological target: T1, recombinant α-synuclein fibrils (Homo sapiens, UniProt P37840); assay: photo-crosslinking of α-synuclein fibrils, digestion and LC-MS/MS; conditions: UV irradiation, GluC or trypsin digest
From the text: To gain additional insight into the binding site of these molecules, a photoaffinity variant (TZ-CLX) was synthesized containing a diazirine as a photo-crosslinking motif. Closely resembling the 6-substituted lead compounds 7j and 8i, this compound covalently inserts into C-H bonds on nearby residues in the α-synuclein fibril binding site upon irradiation with ultraviolet (UV) light. Using established procedures, the crosslinked fibrils can then be disaggregated, digested using either GluC or trypsin, and analyzed via LC-MS/MS to ascertain residue-level binding information. […] Minor crosslinks were also identified in the N-terminal binding site, primarily via trypsin digestion and corresponding to the peptide EGVVAAAEK (residues 13–21, proximal to site 2, Figure 3). […]
Bottom-up LC-MS/MS Analysis. Peptide mixtures resulting from labeling and digestion were resolubilized in 25 µl of water with 0.1%TFA and analyzed by a Q-Exactive HF mass spectromet er (Thermo Fisher Scientific; Waltham, MA) coupled to a Dionex Ultimate 3000 UHPLC system (Thermo Fisher Scientific; Waltham, MA) equipped with an in- house made 15 ௗcm long fused silica capillary column (75 μm ID), packed with reversed phase Repro-Sil Pure C18-AQ 2.4 μm resin (Dr. Maisch GmbH, Ammerbuch, Germany). […]

[2] = biological target: T2, LBD-amplified fibrils (α-synuclein) (Homo sapiens, UniProt P37840); assay: homologous competitive binding assay of radiotracers, LBD-amplified fibrils
T2 construct: made in house
Procedure: (§1) The binding affinity determination (Kd) was performed using homologous competitive binding assays of radiotracers with recombinant α-synuclein fibrils, LBD-amplified fibrils, PD tissues, and AD brain tissue homogenates. The brain tissue from PD and AD cases was obtained from the Banner Sun Health Research Institute Brain and Body Donation Program of Sun City, Arizona.
(§2) These direct binding assays used a fixed concentration of either recombinant α-synuclein fibrils, LBD-amplified fibrils, PD, AD tissue, or a radioligand ([^11C]7f, [^18F]7j, [^11C]8i and [^125I]8i, [^3H]8i) and varying concentration ranges of the corresponding homologous non-radiolabeled standard reference compound. In brief, various concentrations of corresponding cold compounds were diluted in 30 mM of Tris-HCl at pH 7.4, with 0.1% BSA. The direct binding assay was carried out by mixing (1) recombinant α-synuclein fibrils, LBD-amplified fibrils, PD, or AD tissue; (2) a radioligand ([^11C]7f or [^18F]7j); and (3) various concentrations of corresponding cold compounds, with incubation at 37 °C for 1 h for [^18F]7j and 30 min for [^11C]7f. After incubation, the bound and free radioligands were separated via vacuum filtration through 1.0 µm glass fiber filters in 96-well filter plates (MilliporeSigma, Burlington, MA, USA), followed by three 200 µL washes with ice-cold assay buffer. The filters containing the bound ligand were mixed with 150 µL of Optiphase Supermix scintillation cocktail (PerkinElmer) and counted immediately. All data points were obtained in triplicate. The dissociation constant (Kd) and the maximal number of binding site (Bmax) values were determined by fitting the data to the following equation: bound = (Bmax × [radioligand])/([radioligand] + [unlabeled compound] + Kd) + bottom. This was achieving via non-linear regression using GraphPad Prism software (version 4.0), where (bottom) is the non-specific binding and the [radioligand], [unlabeled compound], and Kd are expressed in nM. The synthesis of the tested compounds is described in the Supporting Information. […]
(§3) c) Direct radioactive competitive binding assay of radiotracers [11C]7f, [ 18 F]7j, [ 11C]8i and [ 125 I]8i and [ 3H]8i Affinity determination (Kd) using direct radioactive competitive binding assay with recombinant α-synuclein fibrils, Banner PD tissues, AD brain tissue homogenates. Brain tissue from PD and AD cases was obtained from the Banner Sun Health Research Institute Brain and Body Donation Program of Sun City, Arizona. […]
(§4) These direct binding assays used a fixed concentration of either α-synuclein fibrils or AD tissue and the radioligand ([11C]7f, [ 18F]7j, [ 11C]8i and [ 125 I]8i, [ 3H]8i ) and varying concentration ranges of corresponding homologous non-radiolabeled standard reference compound. In brief, the standard homologous reference compound was diluted in 30 mM Tris-HCl pH 7.4, 0.1% BSA. Reactions were incubated at 37 °C for 1 h before quantifying bound radioligand.
(§5) Bound and free radioligands were separated by vacuum filtration through 1.0 µm glass fiber filters in 96-well filter plates (Millipore), followed by three 200 µL washes with ice-cold assay buffer. Filtrates containing the bound ligand were mixed with 150 µL of Optiphase Supermix scintillation cocktail (PerkinElmer) and counted immediately. All data points were performed in triplicate. The dissociation constant (Kd) and the maximal number of binding sites (Bmax) values were determined by fitting the data to the equation. […]

[3] = biological target: AD brain tissue homogenates; assay: homologous competitive binding assay of radiotracers, AD tissue; design: species or system human; conditions: average, NB = no binding
Procedure: as §1
These direct binding assays used a fixed concentration of either recombinant α-synuclein fibrils, LBD-amplified fibrils, PD, AD tissue, or a radioligand ([^11C]7f, [^18F]7j, [^11C]8i and [^125I]8i, [^3H]8i) and varying concentration ranges of the corresponding homologous non-radiolabeled standard reference compound. […] The filters containing the bound ligand were mixed with 150 µL of Optiphase Supermix scintillation cocktail (PerkinElmer) and counted immediately. […] The dissociation constant (Kd) and the maximal number of binding site (Bmax) values were determined by fitting the data to the following equation: bound = (Bmax × [radioligand])/([radioligand] + [unlabeled compound] + Kd) + bottom. […]
Bound and free radioligands were separated by vacuum filtration through 1.0 µm glass fiber filters in 96-well filter plates (Millipore), followed by three 200 µL washes with ice-cold assay buffer. […] The dissociation constant (Kd) and the maximal number of binding sites (Bmax) values were determined by fitting the data to the equation. […]

[4] = PET brain imaging studies in non-human primates; assay type: in vivo, cynomolgus macaques; conditions: for blood–brain barrier penetration / brain washout kinetics: in words
Procedure: All animal experiments were conducted under a research protocol approved by the Washington University Institutional Animal Care and Use Committee (IACUC). The NHP study was conducted in the NHP microPET facility at the Washington University School of Medicine in St. Louis. Three adults male cynomolgus macaques (9.73 ± 0.71 kg) were used in this study. Each animal was fasted for 12 h prior to the PET scans. Anesthesia was induced with an intramuscular injection of ketamine (10–20 mg kg^−1) and glycopyrrolate (0.013–0.017 mg kg^−1) to reduce salivary gland and respiration secretions. The animal was intubated, and anesthesia was maintained at 40–50% N2O and 1.4–2.0% isoflurane/oxygen throughout the procedure. A percutaneous venous catheter was used for the radiotracer injection. During the PET scanning session, the head was positioned supine with the brain in the center of the field of view. The PET scans were performed with a microPET Focus 220 scanner (Concorde/CTI/Siemens Microsystems, Knoxville, TN, USA). A 10 min transmission scan was performed to check the positioning; once confirmed, a 45 min transmission scan was obtained for attenuation correction. Subsequently, a 2 h dynamic emission scan was acquired after the administration of 365.44 ± 26.69 MBq of [^11C]7f, [^11C]8i, or [^18F]7j via the venous catheter. The PET data were collected from 0 to 120 min with the following timeframes: 3 × 1 min, 4 × 2 min, 3 × 3 min, and […]. The PET images were reconstructed using a filtered back projection method into a volume size of 128 × 128 × 95 and a voxel size of 1.85 × 1.85 × 0.796 mm^3, with all corrections (scatter, decay, random, normalization, etc.) applied. The dynamic PET images were motion-corrected and then co-registered to previous acquired structural MPRAGE MR images. The INIA19 primate brain and atlas (https://www.nitrc.org/projects/inia19/, accessed on 2 August 2023) were then co-registered to the MR images, so as to obtain the regional time−activity curves (TACs) in the regions of interests (ROIs). The radioactivity uptake was normalized using the body weight and the injected dose to obtain the standardized uptake values (SUVs). A voxel-wise reference Logan plot was performed using the cerebellum as the reference region to obtain the distribution volume ratio (DVR), with a linear time range of 30 min to 120 min:(1) ∫0t Ctτdτ/Ctt=DVR∫0t Crτdτ/Ctt+β
Here, Cr(t) is the regional time activity curve (TAC) of the reference tissue, Ct(t) is the pixelwise time activity curves of the target tissue tracer concentration measured via PET, and DVR is the distribution volume ratio of the target to the reference tissue.
The image processing was performed using MIAKAT in MATLAB (R2023a, The MathWorks, Inc., Natick, MA, USA).

PD brain tissues = biological target: T3, PD brain tissues (Homo sapiens, UniProt P37840); assay: homologous competitive binding assay of radiotracers, PD tissue; conditions: for binding to PD tissues versus AD and control brain tissues: in words
T3 construct: The brain tissue from PD and AD cases was obtained from the Banner Sun Health Research Institute Brain and Body Donation Program; tissue Banner Sun Health Research Institute Brain and Body Donation Program; host or cells: human PD post mortem brain tissue
Procedure: as §1, §2, §3, §4
as §5, with “equation. Bound = (Bmax*[Radioligand])/([Radioligand] + [Unlabeled compound] + Kd) + Bottom by nonlinear regression using GraphPad Prism software (version 4.0), where (Bottom) is nonspecific binding and [Radioligand], [Unlabeled compound], and Kd is expressed in nM” for “equation.”
Production of [ 11C]CH3I followed the reported method. Briefly, [ 11C]CH3I was produced on-site from [ 11C]CO2 using a GE PETtrace MeI Microlab. Up to 1.4 Ci of [ 11C]carbon dioxide was produced from the JSW BC-16/8 cyclotron […]

[5] = biological target: T1, recombinant α-synuclein fibrils; assay: radioactive competitive binding assay with [^3H]BF2846 (Tables 1 and 2: or [^18F]7j with LBD-amplified fibrils); conditions: running text b71; fibril type and assay not stated
[6] = Figure 5, single representative curve, read-out: Kd, LBD amplified fibrils, representative assay
[7] = homologous competitive binding, average values for 7f (n = 3) and 7j (n = 15), read-out: Kd, LBD-amplified fibrils
[8] = homologous competitive binding, average (n = 4 for 7j), NB = no binding, read-out: Kd, PD tissue

Row | SMILES | Kd [2, 6] | Kd [2, 7] | blood–brain barrier penetration [4] | brain washout kinetics [4] | time of peak brain uptake post-injection ([4]; n = 1 per tracer) | binding to PD tissues versus AD and control brain tissues (PD brain tissues) | Kd (PD brain tissues; [8]) | further results
1 | C#CCCC1(CCOc2ccc3nc(Nc4ccc(OC)nc4)ccc3c2)N=N1 [TZ-CLX, 6-(2-(3-(But-3-yn-1-yl)-3H-diazirin-3-yl)ethoxy)-N-(6-methoxypyridin-3-yl)quinolin-2-amine] | – | – | – | – | – | – | – | binding site on α-synuclein fibrils by photo-crosslinking [1]: significant selectivity for the C-terminal binding sites of α-synuclein fibrils
2 | COc1ccc(Nc2ccc3cc(O[11CH3])ccc3n2)cn1 [[^11C]7f] | 11 nM | 15.5 ± 4.8 nM | penetrated the BBB well | rapid washout from all brain regions | 3 min | – | – | Kd [3]: 62.7 ± 68.8 nM
3 | [11CH3]Oc1ccc(Nc2ccc3cc(OC/C=C/I)ccc3n2)cn1 [[^11C]8i] | – | – | penetrated the BBB very well | slow | – | potent selectivity for PD brain tissues over AD and control tissues | – | initial brain uptake, standardized uptake value (SUV) ([4]; 3 min post-injection, n = 1 per tracer): about 3 g/mL; brain uptake ratio from 3 min to 120 min ([4]; washout kinetics, n = 1): about 1.5; Kd [5]: 5 nM
4 | COc1ccc(Nc2ccc3cc(OCC[18F])ccc3n2)cn1 [[^18F]7j] | 26 nM | 21 ± 8.7 nM | penetrated the BBB well | rapid washout from all brain regions | 3 min | – | 19.5 ± 15.5 nM | Kd (PD brain tissues; Figure 5, single representative curve, read-out: Kd, PD tissue, representative assay): 3.6 nM; Kd, AD tissue [3]: no binding
5 | COc1ccc(Nc2ccc3cc(OC/C=C/[125I])ccc3n2)cn1 [[^125I]8i] | – | 5 nM and 4.8 nM | – | – | – | selective for PD tissues versus AD or control tissues; also recorded: very potent for PD tissues but not for control and AD brain tissues | 5 nM | Bmax, high affinity binding site, PD tissues (PD brain tissues; two-site binding): 50 nM; Bmax, low affinity binding site, PD tissues (PD brain tissues; two-site binding): 12 µM; Kd (PD brain tissues; two-site binding, read-out: Kd, high affinity binding site, PD tissues): 0.61 nM
